The source of these data is patent US7622494B2, “Chemical compounds” (SmithKline Beecham Corporation, priority 2003, dated 2009).

Counter-ions that a name gives are not always drawn. Like-named read-outs stand apart in the source and are kept apart here.

For this assay, the system named is episomal HPV-16 DNA in W12-20850 cells. Put plainly: W-12 cellular assay (hybrid capture quantification of episomal HPV-16 DNA). It is filed as cell-based, HPV16. The settings on record: read-out: W-12. As to the method:
Compounds of the current invention are believed useful in the treatment and/or prophylaxis of conditions and diseases associated with HPV infection. Activity mediated through HPV was determined using the following W-12 cellular assay.
The W12 cell line used contains HPV16 DNA and was derived from a low-grade cervical dysplasia tissue by Margaret Stanley and subsequently clonally selected by Paul Lambert (University of Wisconsin). One of these clones, W12-20850, contains 1000 copies of episomal HPV16 DNA and was used in the cell-based assay. W12-20850 cells were routinely cultured with a gamma-irradiated (6000 rads) feeder layer of 3T3 cells. Assays, however, were run in the absence of a 3T3 feeder layer. W12-20850 and 3T3 cells were routinely split when they were sub-confluent. W12-20850 were grown in W12 Medium which is constituted of 25% DMEM (Gibco BRL, Cat # 12430-047), 75% F12 Media (Gibco BRL, Cat # 11765-021) and 2.5% FBS. The additives include […] Adenine (Sigma, Cat # A-9795), […] Hydrocortisone (Calbiochem, Cat # 386698); 5.0 mg/ml Bovine Insulin (Sigma, Cat # I-1882), 8.4 ng/ml cholera toxin (Fluka, Cat # 26694) and 10 ng/ml EGF (Invitrogen, Cat # 13247-051). 3T3 cells were grown in DMEM containing 10% FBS. Cell lines were incubated at 37° C., in the presence of 5% CO2.
For the assay, W12-20850 cells were seeded into a 96 well plate-containing compound. Plates were incubated at 37° C. in the presence of 5% CO2, for four days. On the fourth day, cells were lysed and the amount of episomal. HPV-16 DNA was quantified using a non-radioactive hybrid capture technique with HPV-16 specific capture and detection probes. The percent inhibition relative to untreated control cells' was then determined.
The hybrid capture assay is run in a 96 well plate format. Hybridization plates (Nunc Maxisorb Cat # 450320) were coated with a mixture of capture probe and ReactiBind solution for at least 4 hours and then washed with 0.2×SSC, 0.05% Tween20 (SSCT) prior to blocking with […] of 0.2 N NaOH, 1% Igepal, 10 mg/ml hsDNA for 6-8 hours. The hybridization was carried out by mixing 27 μl of lysed cells with 45 μl of denatured detection probe in 6M guanidine isothiocyanate. To prevent evaporation, 50 μl of mineral oil was added to each well. The plate was then heated to 90° C. for 6.5 minutes and the hybridization continued at 42° C. overnight. Assay plates were washed 6 times with SSC/T. Anti-digoxigenin HRP-conjugated Ab (Boehringer Mannheim 1207733, 1:5000) was incubated in the wells for 30 min at room temperature and washed with PBS/0.05% Tween-20. SuperSignal LBA substrate (Pierce Cat # 37070) was added, and chemiluminescence was measured using Wallac 1420 Victor plate reader.

[1] abbreviates: Human papillomavirus 16, W12-20850, 96 h.

As to `C[C@@H](N[C@H]1CCCc2c1[nH]c1ccc(Br)cc21)c1ccccc1` [Example 32, (1S)-6-Bromo-N-[(1R)-1-Phenylethyl]-2,3,4,9-tetrahydro-1H-carbazol-1-amine hydrochloride salt], the IC50 under setting [1] amounted to 525 nM.

For `CC(C)(NC1CCCc2c1[nH]c1ccc(Br)cc21)c1ccccc1` (stereo not shown) [Example 33, 6-Bromo-N-(1-methyl-1-phenylethyl)-2,3,4,9-tetrahydro-1H-carbazol-1-amine hydrochloride salt], the IC50 under setting [1] was 750 nM.

`C[C@H](NC1CCCc2c1[nH]c1ccc(Br)cc21)c1ccccc1` (stereo partly drawn) [Example 34, 6-Bromo-N-[(1S)-1-phenylethyl]-2,3,4,9-tetrahydro-1H-carbazol-1-amine hydrochloride salt]: under setting [1], the IC50 came to 290 nM.

In the case of `C[C@H](N[C@H]1CCCc2c1[nH]c1ccc(Br)cc21)c1ccccc1` [Example 35, (1S)-6-Bromo-N-[(1S)-1-phenylethyl]-2,3,4,9-tetrahydro-1H-carbazol-1-amine hydrochloride salt], the IC50 under setting [1] came to 3000 nM.

Consider `C[C@H](N[C@@H]1CCCc2c1[nH]c1ccc(Br)cc21)c1ccccc1` [Example 36, (1R)-6-Bromo-N-[(1S)-1-phenylethyl]-2,3,4,9-tetrahydro-1H-carbazol-1-amine hydrochloride salt], for which the IC50 under setting [1] came to 20 nM.

Turning to `CN(CCc1ccccc1)C1CCCc2c1[nH]c1ccc(Br)cc21` (stereo not shown) [Example 37, 6-Bromo-N-methyl-N-(2-phenylethyl)-2,3,4,9-tetrahydro-1H-carbazol-1-amine hydrochloride salt], the IC50 under setting [1] amounted to 3000 nM.

With `Cn1c2c(c3cc(Br)ccc31)CCCC2NCCc1ccccc1` (stereo not shown) [Example 38, 6-Bromo-9-methyl-N-(2-phenylethyl)-2,3,4,9-tetrahydro-1H-carbazol-1-amine hydrochloride salt], the IC50 under setting [1] is 27000 nM.

For the compound `C[C@@H](CNC1CCCc2c1[nH]c1ccc(Br)cc21)c1ccccc1` (stereo partly drawn) [Example 39, 6-Bromo-N-[(2R)-2-phenylpropyl]-2,3,4,9-tetrahydro-1H-carbazol-1-amine hydrochloride salt], the IC50 under setting [1] worked out at 160 nM.

For the compound `Cc1ccc2[nH]c3c(c2c1)CCCC3NCCc1ccccc1` (stereo not shown) [Example 40, 6-Methyl-N-(2-phenylethyl)-2,3,4,9-tetrahydro-1H-carbazol-1-amine hydrochloride salt], the IC50 under setting [1] came to 2700 nM.

`Cc1ccc2[nH]c3c(c2c1)CCCC3NC1Cc2ccccc2C1` (stereo not shown) [Example 41, N-(2.3-Dihydro-1H-inden-2-yl)-6-methyl-2,3,4,9-tetrahydro-1H-carbazol-1-amine hydrochloride-salt]: where the note is “Human papillomavirus 16, 96 h, W12-20850 cells, four days incubation, episomal HPV-16 DNA by hybrid capture, inhibition relative to untreated control cells”, the IC50 was 400 nM.

For the compound `Cc1ccc2[nH]c3c(c2c1)CCCC3N[C@H](C)c1ccccc1` (stereo partly drawn) [Example 42, 6-Methyl-N-[(1R)-1-phenylethyl]-2,3,4,9-tetrahydro-1H-carbazol-1-amine hydrochloride salt], the IC50 under setting [1] amounted to 540 nM.

Take `Cc1ccc2[nH]c3c(c2c1)CCC[C@H]3N[C@H](C)c1ccccc1` [Example 43, hydrochloride salt]: the IC50 under setting [1] was 240 nM.

For `Cc1ccc2[nH]c3c(c2c1)CCC[C@@H]3N[C@H](C)c1ccccc1` [Example 44, (1S)-6-Methyl-N-[(1R)-1-phenylethyl]-2,3,4,9-tetrahydro-1H-carbazol-1-amine hydrochloride salt], under setting [1], the IC50 amounted to 8400 nM.

Turning to `Cc1ccc2[nH]c3c(c2c1)CCCC3N[C@@H](C)c1ccccc1` (stereo partly drawn) [Example 45, 6-Methyl-N-[(1S)-1-phenylethyl]-2,3,4,9-tetrahydro-1H-carbazol-1-amine hydrochloride salt], the IC50 under setting [1] is 7000 nM.

For the compound `Cc1ccc2[nH]c3c(c2c1)CCC[C@@H]3N[C@@H](C)c1ccccc1` [Example 46, (1S)-6-Methyl-N-[(1S)-1-phenylethyl]-2,3,4,9-tetrahydro-1H-carbazol-1-amine hydrochloride salt], the IC50 under setting [1] came to 8600 nM.

`Cc1ccc2[nH]c3c(c2c1)CCC[C@H]3N[C@@H](C)c1ccccc1` [Example 47, (1R)-6-Methyl-N-[(1S)-1-phenylethyl]-2,3,4,9-tetrahydro-1H-carbazol-1-amine hydrochloride salt]: under setting [1], the IC50 is 160 nM.
